Patent US6265423A, “Aromatic polycyclic retinoid-type derivatives, method for preparing same, and use thereof for making pharmaceutical and cosmetic compositions” (priority 1996, dated 2001)

Columns and labels:
[1] = test system: ZR-75-1 human mammary cancer cells; experiment: MTT test, proliferation of ZR-75-1; format: cell-based
How it was run: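 Cells grown at 37° C in MEM/5% FCS were plated for 24 h, then treated at 10^-8, 10^-6 or 10^-4 M. Each condition was run in 6 duplicates.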

[2] = test system: human mammary tumoral lineage T-47D; experiment: Clonogenic test (soft agar), growth of cellular colonies; format: cell-based; settings: T-47D
How it was run: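 Colony counts (clones over 100 μm², MTT-stained for at least 3 h) are expressed as a percentage of the untreated control. T-47D cells grew anchorage-independently between a 0.5% agar base and a 0.3% agar top layer. Cultures were incubated for 21 days after treatment at 37 °C with 5% CO2.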

Gal4-RARγ = experiment: Transactivation, chimerical receptor Gal4-RARγ (transitory transfection of HeLa); format: cell-based; settings: 10^-6 M; 100% = TTNPB 10^-8 M
[3] = test system: ERE-βGlob-Luc, MELN lineage (MCF-7); experiment: Anti-oestrogenic effect, MELN lineage activated by estradiol; format: cell-based, human
How it was run: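 Run in duplicate on estradiol-activated (10^-9 M) MELN cells, MCF-7 stably transfected with ERE-βGlobin-luciferase reporter. Values are percentages of the estradiol response after deducting basal level, defined by 1 μM hydroxytamoxifen.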

[4] = test system: A-427 human pulmonary cancer cells; experiment: MTT test, proliferation of A-427
[5] = Homo sapiens, A-427, 72 h, read-out: level of proliferation

C/C(=C/c1ccc2c(c1)C(C)(C)CCC2(C)C)c1ccc(-c2nnn[nH]2)cc1 [CB92834]
activity at 100 µM ([1]; Homo sapiens, ZR-75-1, 10^-4 M, 72 h, control = 100%, read-out: level of proliferation): 18.7% | activity at 1 µM ([1]; Homo sapiens, ZR-75-1, 10^-6 M, 72 h, control = 100%, read-out: level of proliferation): 39.9% | activity at 0.01 µM ([1]; Homo sapiens, ZR-75-1, 10^-8 M, 72 h, control = 100%, read-out: level of proliferation): 27.9% | effect on cellular increase, ZR-75-1 (in words) ([1]; MTT test): strongly inhibitive activity on the cellular increase of the two lineages | activity at 0.01 µM ([2]; Homo sapiens, T47D, 504 h, 10^-8 M, 21 days, control = 100%, read-out: mean number of cellular colonies in relation to control): 38 ± 2% | activity at 0.001 µM ([2]; Homo sapiens, T47D, 504 h, 10^-9 M, 21 days, control = 100%, read-out: mean number of cellular colonies in relation to control): 58.9 ± 3.7% | activity at 0.0001 µM ([2]; Homo sapiens, T47D, 504 h, 10^-10 M, 21 days, control = 100%, read-out: mean number of cellular colonies in relation to control): 82.5 ± 12% | effect on growth of cellular colonies (in words) ([2]; soft agar): global inhibiting and dose dependent activity as great as that obtained with the best products in the trans series (E) | GAL4-RAR RARγ transactivation (Gal4-RARγ): 2% | inhibition ([3]; Homo sapiens, MCF7, 10^-6 M, cells activated by 10^-9 M estradiol): 0% | anti-oestrogenic effect (in words) ([3]; estradiol-activated MELN cells): inactive | activity at 0.01 µM [4, 5]: 80.5% | activity at 1 µM [4, 5]: 78.3% | activity at 100 µM [4, 5]: 3.1% | effect on cellular increase, A-427 (in words) ([4]; MTT test): show activity on the increase of these two lineages
